This assay concerns HepG2 cells. The assay is described as follows: Determination of reactive oxygen species (ROS) in HepG2 indicator cells (ROS-Glo system). It counts as cell-based. To be noted: two hours or four hours of incubation, FIG. 4 and 5. The method, then: The potential of Boswellia extract BSR037: LN00125 (Example 12) and Boswellia extract BSR037: LN00126 (Example 15) of inducing reactive oxygen species (ROS) was tested. The effects were compared with ROS generation upon exposure to positive control Menadione as well as two solvent ethanol. To this end, HepG2 cells were incubated in presence of different concentrations of the respective Boswellia extract for two hours. ROS levels were determined by using the ROS-Glo system (Promega). HepG2 cells were seeded in […] flat-bottom black microtiter plates at a density of 10000 cells per well, 100 μl per well, and allowed to attach to the plate for 24 hours. Test item dilutions were prepared in separate plates. The maximum concentration was a 1:100 dilution in media (final solvent concentration: 1% ethanol) followed by a 1:3 serial dilution in media containing 1% ethanol. […] Cells exposed to media containing 1% ethanol served as untreated control. After overnight adherence, media was completely removed from cells by vacuum aspiration and 80 μl of compound dilution, positive and negative controls were added to the cells. Test items were tested in two replicates per concentration (A and B). In independent experiments, ROS levels were measured after two hours of incubation (see FIG. 4A-D) or after four hours of incubation (see FIG. 5A-D), respectively).

In the case of `CC1=CC(=O)c2ccccc2C1=O` [Menadione], the ROS induction result is “ROS induction was detected”.

The record behind these values is patent publication US11759492B2, “Extract from a plant of the genus Boswellia and related products and uses” (Alpinia Laudanum Institute of Phytopharmaceutical Sciences …, priority 2014, dated 2023).
